# Data: patent US12637478B2, “Compound, preparation method thereof, and antibiotic composition comprising same” (priority 2020, dated 2026)
# Where two headings read alike, the source gives them in different places.
# Tests used:
# E. faecalis = assay: MIC by broth microdilution (aerobic pathogens), test strain 7; type: cell-based; details: Enterococcus faecalis; test strain 7, E. faecalis; read-out: MIC
# Description: (§1) The antibacterial activity of the compounds of Examples 1 to 48 of the present invention against aerobic pathogens were evaluated by measuring the minimum concentration of the antibiotic capable of inhibiting bacterial growth by 90% compared to the growth of the non-drug treated control group. MIC was measured by the broth microdilution method based on CLSI standards [Reference: Clinical and Laboratory Standards Institute Document. (2000) Methods for Dilution Antimicrobial Susceptibility Test for Bacteria that Grow Aerobically-Fifth Edition: M7-A5. CLSI, Villanova, PA].
# (§2) All 13 strains such as methicillin susceptible Staphylococcus aureus (MSSA), methicillin resistant Staphylococcus aureus (MRSA), Vancomycin resistant Staphylococcus aureus (VRSA), Staphylococcus epidermidis, methicillin resistant Staphylococcus epidermidis, Enterococcus faecalis, Vancomycin resistant Enterococcus faecalis, Enterococcus faecium, Vancomycin resistant Enterococcus faecium were used.
# S. aureus^MS [1] = assay: MIC by broth microdilution (aerobic pathogens), test strain 1; type: cell-based; details: Staphylococcus aureus
# Description: as §1, §2
# S. epidermis^MR = assay: MIC by broth microdilution (aerobic pathogens), test strain 6; type: cell-based, Methicillin resistant Staphylococcus epidermidis; details: Staphylococcus epidermidis
# Description: as §1, §2
# E. faecium^VRE = assay: MIC by broth microdilution (aerobic pathogens), test strain 11; type: cell-based, Vancomycin resistant Enterococcus faecium; details: Enterococcus faecium; test strain 11, E. faecium^VRE (vancomycin resistant); read-out: MIC
# Description: as §1, §2
# E. faecium^LinR = assay: MIC by broth microdilution (aerobic pathogens), test strain 12; type: cell-based, Linezolid resistant Enterococcus faecium; details: Enterococcus faecium; test strain 12, E. faecium^LinR (linezolid resistant); read-out: MIC
# Description: as §1, §2
# S. aureus^MS [2] = assay: MIC by broth microdilution (aerobic pathogens), test strain 2; type: cell-based; details: Staphylococcus aureus
# Description: as §1, §2
# S. aureus^VR = assay: MIC by broth microdilution (aerobic pathogens), test strain 4; type: cell-based, Vancomycin resistant Staphylococcus aureus; details: Staphylococcus aureus; test strain 4, S. aureus^VR (vancomycin resistant); read-out: MIC
# Description: as §1, §2
# S. epidermis = assay: MIC by broth microdilution (aerobic pathogens), test strain 5; type: cell-based; details: Staphylococcus epidermidis
# Description: as §1, §2
# S. aureus^MR = assay: MIC by broth microdilution (aerobic pathogens), test strain 3; type: cell-based, Methicillin resistant Staphylococcus aureus; details: Staphylococcus aureus; test strain 3, S. aureus^MR (methicillin resistant); read-out: MIC
# Description: as §1, §2
# E. faecalis^LinR = assay: MIC by broth microdilution (aerobic pathogens), test strain 9; type: cell-based, Linezolid resistant Enterococcus faecalis; details: Enterococcus faecalis
# Description: as §1, §2
# E. faecalis^VanA = assay: MIC by broth microdilution (aerobic pathogens), test strain 8; type: cell-based, Vancomycin resistant Enterococcus faecalis; details: Enterococcus faecalis; test strain 8, E. faecalis^VanA (vancomycin resistant); read-out: MIC
# Description: as §1, §2
# E. faecium = assay: MIC by broth microdilution (aerobic pathogens), test strain 10; type: cell-based; details: Enterococcus faecium; test strain 10, E. faecium; read-out: MIC
# Description: as §1, §2
# C. difficile 9689 = assay: MIC by agar dilution against Clostridioides difficile, test strain 13; type: cell-based
# C. difficile 161 = assay: MIC by agar dilution against Clostridioides difficile, test strain 16; type: cell-based; details: test strain 16, C. difficile 161, anaerobic, agar dilution, read-out: MIC
# C. difficile 159 = assay: MIC by agar dilution against Clostridioides difficile, test strain 15; type: cell-based
# C. difficile 181 = assay: MIC by agar dilution against Clostridioides difficile, test strain 19; type: cell-based; details: test strain 19, C. difficile 181, anaerobic, agar dilution, read-out: MIC
# C. difficile 174 = assay: MIC by agar dilution against Clostridioides difficile, test strain 18; type: cell-based
# C. difficile 152 = assay: MIC by agar dilution against Clostridioides difficile, test strain 14; type: cell-based
# C. difficile 173 = assay: MIC by agar dilution against Clostridioides difficile, test strain 17; type: cell-based
# M. abscessus = assay: MIC by resazurin (REMA) assay against Mycobacterium, test strain 23; type: cell-based; details: Mycobacteroides abscessus
# Description: In order to test the antibacterial activity, the medium of Mycobacterium cultured to late log phase was diluted so as to be 4.0×10^5 cells/well in Middlebrook 7H10 agar medium (Difco) supplemented with 10% oleic acid, albumin, dextrose, catalase (OADC, Becton Dickinson) and 0.05% Tween 80 (Sigma Aldrich) and was dispensed into a 96-well plate. The compounds were treated so that DMSO was 1%, and after 3 days, a 0.025% resazurin (REMA) solution was dispensed, and the growth of the bacteria was confirmed after culturing. The MIC value was measured for the antibacterial activity through resazurin (excitation 530 nm, emission 590 nm).
# [3] = test strain 1, S. aureus^MS, read-out: MIC
# [4] = test strain 6, S. epidermis^MR (methicillin resistant), read-out: MIC
# [5] = test strain 2, S. aureus^MS, read-out: MIC
# [6] = test strain 5, S. epidermis, read-out: MIC
# [7] = test strain 9, E. faecalis^LinR (linezolid resistant), read-out: MIC
# [8] = test strain 13, C. difficile 9689, anaerobic, agar dilution, read-out: MIC
# [9] = test strain 15, C. difficile 159, anaerobic, agar dilution, read-out: MIC
# [10] = test strain 18, C. difficile 174, anaerobic, agar dilution, read-out: MIC
# [11] = test strain 14, C. difficile 152, anaerobic, agar dilution, read-out: MIC
# [12] = test strain 17, C. difficile 173, anaerobic, agar dilution, read-out: MIC
Structure (SMILES),MIC (E. faecalis) [mg/L],MIC (S. aureus^MS [1]; [3]) [mg/L],MIC (S. epidermis^MR; [4]) [mg/L],MIC (E. faecium^VRE) [mg/L],MIC (E. faecium^LinR) [mg/L],MIC (S. aureus^MS [2]; [5]) [mg/L],MIC (S. aureus^VR) [mg/L],MIC (S. epidermis; [6]) [mg/L],MIC (S. aureus^MR) [mg/L],MIC (E. faecalis^LinR; [7]) [mg/L],MIC (E. faecalis^VanA) [mg/L],MIC (E. faecium) [mg/L],MIC (C. difficile 9689; [8]) [mg/L],MIC (C. difficile 161) [mg/L],MIC (C. difficile 159; [9]) [mg/L],MIC (C. difficile 181) [mg/L],MIC (C. difficile 174; [10]) [mg/L],MIC (C. difficile 152; [11]) [mg/L],MIC (C. difficile 173; [12]) [mg/L],other results
"CC(=O)NC[C@H]1CN(c2ccc(N3CCOCC3)c(F)c2)C(=O)O1 [Lin, Linezolid, reference compound]",2,2,1,2,32,1,8,1,4,64,2,4,–,–,–,–,–,–,–,–
C/C=C1\NC(=O)[C@H]([C@@H](C)O)NC(=O)c2csc(n2)-c2ccc(-c3nc(-c4nc(C(=O)NC5(C(=O)NN6CC(=O)NC6=O)CC5)cs4)cs3)nc2-c2csc(n2)[C@H]([C@@H](C)O)NC(=O)c2csc(n2)[C@H](C(C)C)NC(=O)c2csc1n2 [Compound 23],–,–,–,–,–,–,–,–,–,–,–,–,–,–,–,–,–,–,–,MIC (S. aureus^MS [1]): 0.5 mg/L; MIC (C. difficile 9689; 9689): 0.25 mg/L; MIC (S. epidermis^MR): 1 mg/L; MIC (S. aureus^MS [2]): 0.5 mg/L; MIC (M. abscessus): 0.226 mg/L; MIC (C. difficile 159; 159): 0.5 mg/L; MIC (S. epidermis): 1 mg/L; MIC (C. difficile 174; 174): 0.125 mg/L; MIC (C. difficile 152; 152): 0.25 mg/L; MIC (E. faecalis^LinR): 1 mg/L; MIC (C. difficile 173; 173): 1 mg/L
C/C=C(\NC(=O)c1csc(-c2csc(-c3ccc4c(n3)-c3csc(n3)[C@H]([C@@H](C)O)NC(=O)c3csc(n3)[C@H](C(C)C)NC(=O)c3csc(n3)/C(=C/C)NC(=O)[C@H]([C@@H](C)O)NC(=O)c3csc-4n3)n2)n1)C(=O)NCCN1CCN(C(C)C)CC1 [Compound 47],0.5,0.5,0.5,1,1,0.5,1,0.5,1,1,0.5,0.5,–,–,–,–,–,–,–,–
C/C=C(\NC(=O)c1csc(-c2csc(-c3ccc4c(n3)-c3csc(n3)[C@H]([C@@H](C)O)NC(=O)c3csc(n3)[C@H](C(C)C)NC(=O)c3csc(n3)/C(=C/C)NC(=O)[C@H]([C@@H](C)O)NC(=O)c3csc-4n3)n2)n1)C(=O)NCCCN1CCOCC1 [Compound 48],0.5,0.5,0.5,1,1,0.5,1,0.5,1,1,0.5,0.5,–,–,–,–,–,–,–,–

# Second part, led by results:
MIC (E. faecalis) [mg/L],MIC (S. aureus^MS [1]; [3]) [mg/L],MIC (S. epidermis^MR; [4]) [mg/L],MIC (E. faecium^VRE) [mg/L],MIC (E. faecium^LinR) [mg/L],MIC (S. aureus^MS [2]; [5]) [mg/L],MIC (S. aureus^VR) [mg/L],MIC (S. epidermis; [6]) [mg/L],MIC (S. aureus^MR) [mg/L],MIC (E. faecalis^LinR; [7]) [mg/L],MIC (E. faecalis^VanA) [mg/L],MIC (E. faecium) [mg/L],MIC (C. difficile 9689; [8]) [mg/L],MIC (C. difficile 161) [mg/L],MIC (C. difficile 159; [9]) [mg/L],MIC (C. difficile 181) [mg/L],MIC (C. difficile 174; [10]) [mg/L],MIC (C. difficile 152; [11]) [mg/L],MIC (C. difficile 173; [12]) [mg/L],Structure (SMILES),other results
0.5,0.25,0.5,1,1,0.125,–,0.5,–,0.25,–,0.5,0.25,1,0.5,1,0.25,0.25,0.5,C/C=C1\NC(=O)[C@H]([C@@H](C)O)NC(=O)c2csc(n2)-c2ccc(-c3nc(-c4nc(C(=O)NC5(C(=O)NCCCCB(O)O)CC5)cs4)cs3)nc2-c2csc(n2)[C@H]([C@@H](C)O)NC(=O)c2csc(n2)[C@H](C(C)C)NC(=O)c2csc1n2 [Compound 20],–
0.25,0.125,0.125,–,0.5,0.0625,0.5,0.0625,0.5,0.125,0.25,0.25,0.5,0.125,0.25,0.25,0.06,0.06,0.06,C/C=C1\NC(=O)[C@H]([C@@H](C)O)NC(=O)c2csc(n2)-c2ccc(-c3nc(-c4nc(C(=O)NC5(C(=O)NCCCB(O)O)CC5)cs4)cs3)nc2-c2csc(n2)[C@H]([C@@H](C)O)NC(=O)c2csc(n2)[C@H](C(C)C)NC(=O)c2csc1n2 [Compound 10],–
